Results as given in patent US20030066100A1, “Capacitative calcium entry mechanism in porcine oocytes” (priority 2001, published 2003).
“Also recorded” adds a separate entry of the source.

Assays:
Assay type in all cases: cell-based
[1] = tested on: porcine oocytes; experiment: Divalent cation influx after InsP3 injection, Mn2+-quench technique
Procedure: (§1) The oocytes were loaded with the Ca^2+ indicator dye fura-2 by being incubated in the presence of 2 μM acetoxymethyl ester form of the dye and 0.02% pluronic F-127 (both from Molecular Probes, Inc., Eugene, Oreg.) for 40-50 minutes. After incubation the oocytes were rinsed, exposed to various treatments and the changes in the intracellular free Ca^2+ concentration ([Ca^2+]i) were followed using a Photoscan-2 photon counting fluorescent microscope system (Nikon Corp., Tokyo, Japan) as described by Macháty et al., Biol Reprod 1997a; 56:921-930. Fluorescence was recorded by calculating the ratio of fura-2 fluorescence at 510 mn excited by UV light alternatively at 340 and 380 nm. Intracellular free Ca^2+ levels are presented as fluorescent ratio values with ratios of 1.2 and 6.5 representing 65 and 602 nM Ca^2+, respectively.
To induce the release of Ca^2+ from the intracellular stores, the second messenger InsP3 was injected into the oocytes' cytoplasm using a microinjector (Narishige Co. Ltd., Tokyo, Japan). InsP3 was dissolved in carrier medium consisting of 10 mM Hepes and 100 μM EGTA buffered at pH 7.0. The amount injected was about 40 pl, which is 4% of the total cytoplasmic volume of ˜1000 pl. Microinjection was performed in HEPES-TL-PVA on a heated stage of a Nikon Diaphot inverted microscope (Nikon Corp., Tokyo, Japan).
The onset of a divalent cation influx after a Ca^2+ transient was investigated by using the manganese (Mn^2+)-quench technique disclosed by Hallam et al., Biochem. J. 1988; 255:179-184. Release of Ca^2+ from the intracellular stores was stimulated by intracellular injection of approximately 40 pl of 2.5 μM InsP3, the InsP3 receptor agonist. As a Ca^2+ surrogate, Mn^2+ was added to the external medium. Mn^2+ was reported to be able to translocate across the plasma membrane, bind fura-2 and quench its fluorescence. This technique enables measurement of divalent cation influx even when Ca^2+ release from the internal stores is coincident. The entry of Mn^2+ into the cell was monitored by imaging the resulting quench in fura-2 fluorescence at 510 nm excited alternatively at 340 and 360 nm. While the signal resulting from the 340 nm excitation is [Ca^2+]i sensitive, at 360 nm fura-2 fluorescence is independent of [Ca^2+]i and any decrease in fluorescence is due only to Mn^2+ entry.

[2] = tested on: porcine oocytes; experiment: Capacitative Ca2+ entry after store depletion and re-addition of Ca2+ (fura-2 fluorescence)
Procedure: as §1
A Ca^2+ influx was generated in porcine oocytes by the depletion of the intracellular Ca^2+ stores. […] It is routinely used to drain the intracellular stores of their Ca^2+ content. Fura-2-loaded oocytes were incubated in Ca^2+-free HEPES-TL-PVA medium in the presence of 10-50 μM thapsigargin for 3 hours to deplete intracellular Ca^2+ stores. After washing in Ca^2+-free medium (to remove thapsigargin and ensure that the intracellular stores remain empty), normal Ca^2+-containing medium was added to the oocytes and the changes in the [Ca^2+]i were measured. Oocytes incubated in Ca^2+-free HEPES-TL-PVA for 3 hours without thapsigargin were used to show the Ca^2+ entry under normal conditions, when the intracellular Ca^2+ stores were full.

[3] = tested on: porcine oocytes; experiment: Capacitative Ca2+ entry in oocytes expressing Drosophila trp; conditions: 1 mM La3+
Text: The plasmid vector pBluescript KS, containing the Drosophila trp cDNA ctrp-9 downstream of the T7 promoter (a generous gift from C. Montell) was transfected into Escherichia coli DH5α cells. Plasmid DNA was isolated and linearized with the restriction endonuclease KpnI (Promega Corp., Madison, Wis.) and mRNA was transcribed from the cDNA with T7 polymerase using the RiboMAX™ Large Scale RNA Production System (Promega), following the manufacturer's recommendations. In order to produce capped RNA transcripts, the reaction was performed in the presence of 3 mM m^7G(5′)ppp(5′)G (Boehringer-Mannheim Corp., Indianapolis, Ind.). Purified RNA was precipitated with 0.3 M sodium acetate and ethanol. The pellet was resuspended in diethylpyrocarbonate (DEPC)-treated water containing RNasin (1 IU/μl; from Promega) to a final concentration of approximately 800 ng/μl and the samples were stored in 3 μl aliquots at −70° C.
The Drosophila trp protein was expressed in porcine oocytes by injecting approximately 32 pg mRNA made by in vitro transcription of the cDNA and allowing 15 hours for translation. Control oocytes were injected with the carrier medium (DEPC-treated water). […] The baseline fluorescence of the oocytes was then recorded in Ca^2+-free HEPES-TL-PVA, and changes in [Ca^2+]i were measured for 20-30 minutes after the addition of Ca^2+-containing medium.

[4] = tested on: porcine oocytes; experiment: Ca2+ release by thapsigargin in Ca2+-free medium (fura-2 fluorescence)
Procedure: as §1
A Ca^2+ influx was generated in porcine oocytes by the depletion of the intracellular Ca^2+ stores. […] It is routinely used to drain the intracellular stores of their Ca^2+ content. Fura-2-loaded oocytes were incubated in Ca^2+-free HEPES-TL-PVA medium in the presence of 10-50 μM thapsigargin for 3 hours to deplete intracellular Ca^2+ stores. After washing in Ca^2+-free medium (to remove thapsigargin and ensure that the intracellular stores remain empty), normal Ca^2+-containing medium was added to the oocytes and the changes in the [Ca^2+]i were measured. […]

[5] = 1 mM La3+, InsP3 microinjected, Mn2+ added

## [La+3] [La^3+, lanthanum]
[1]; [5]
  block of cation influx and decline in fluorescence at both wavelengths: totally blocked
  oocytes in which fluorescence intensities stayed near the resting values: 7/7
[2]; 1 mM La3+
  block of thapsigargin-evoked Ca2+ entry: totally inhibited; also recorded: completely blocked
  oocytes in which thapsigargin-evoked Ca2+ entry was blocked: 11/11
[3]
  block of Ca2+ entry-evoked [Ca2+]i increase: completely blocked

## C/C=C(/C)C(=O)O[C@H]1C(C)=C2[C@H]([C@@H]1OC(=O)CCCCCCC)[C@@](C)(OC(C)=O)C[C@H](OC(=O)CCC)[C@@]1(O)[C@H]2OC(=O)[C@@]1(C)O [thapsigargin]
[4]; 10-50 μM thapsigargin in Ca2+-free medium
  change in [Ca2+]i: induced an increase in [Ca^2+]i
[4]; 10 and 20 μM thapsigargin, Ca2+-free medium
  increase in [Ca2+]i relative to 50 μM: slightly smaller increases in [Ca^2+]i
[2]; after thapsigargin store depletion
  start of the increase in [Ca2+]i after adding the HEPES-TL-PVA medium: 0 to 300 s
[2]; stores emptied with thapsigargin for 3 hours in Ca2+-free medium
  oocytes showing Ca2+ entry (rise in [Ca2+]i) after re-addition of Ca2+: 15 out of 18

## O=P(O)(O)O[C@@H]1[C@H](O)[C@H](O)[C@@H](OP(=O)(O)O)[C@H](OP(=O)(O)O)[C@H]1O [InsP3, inositol 1,4,5-trisphosphate]
[1]; InsP3 microinjected, 3 mM Mn2+ in the external medium
  oocytes with rapid decline in fluorescence well below the basal value (Mn2+ entry): 14/14
[1]; injection of about 40 pl of 2.5 μM InsP3
  oocytes with transient elevation in fluorescence at 340 nm excitation (increase in [Ca2+]i): 16 out of 16
